Source: ChEMBL document CHEMBL4665906, “Novel Potassium Channel Inhibitors” (ACS Med Chem Lett, 2020)

Biological target: Intermediate conductance calcium-activated potassium channel protein 4 (Homo sapiens, UniProt O15554)
Assay: Inhibition of Kca3.1 in human erythrocytes
Type: cell-based

Intermediate conductance calcium-activated potassium channel protein 4, sequence (O15554 whole entry): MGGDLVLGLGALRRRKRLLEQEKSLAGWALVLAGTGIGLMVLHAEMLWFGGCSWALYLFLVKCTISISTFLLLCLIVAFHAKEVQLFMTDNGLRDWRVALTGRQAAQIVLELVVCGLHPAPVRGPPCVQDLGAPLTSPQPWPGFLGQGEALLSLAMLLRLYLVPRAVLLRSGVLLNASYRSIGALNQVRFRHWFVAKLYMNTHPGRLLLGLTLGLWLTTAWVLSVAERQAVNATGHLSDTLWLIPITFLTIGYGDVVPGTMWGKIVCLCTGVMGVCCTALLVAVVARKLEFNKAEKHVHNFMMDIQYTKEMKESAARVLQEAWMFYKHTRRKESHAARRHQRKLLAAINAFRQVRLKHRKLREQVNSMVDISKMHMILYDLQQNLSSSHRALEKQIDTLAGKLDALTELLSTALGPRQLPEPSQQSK

| IC50 [nM] | SMILES |
| --- | --- |
| 8.1 | COC(=O)N(C[C@H]1CCCN1C)C1(c2ccc(F)c(C(F)(F)F)c2)CC1 |
| 8.6 | COC(=O)N(CC(C)(C)N)C1(c2ccc(F)c(C(F)(F)F)c2)CC1 |
| 8.7 | COC(=O)N(C[C@@H]1CCCN1)C1(c2ccc(F)c(OC(F)(F)F)c2)CC1 |
